According to US20210355105A1, “REGULATOR OF NITROGEN-CONTAINING HETEROAROMATIC DERIVATIVES, PREPARATION METHOD THEREFOR AND USE THEREOF” (Jiangsu Hansoh Pharmaceutical Group Co., Ltd., priority 2018, published 2021):

What was measured:
hERG potassium channel = target: T1, hERG potassium channel (Homo sapiens, UniProt Q12809); experiment: Inhibitory activity on hERG potassium channel (Qpatch, CHO-hERG cells); type: cell-based; details: six concentrations up to 40 μM, read-out: hERG (inhibitory effect on hERG current)
T1 construct: expressed in transfected cells; host or cells: CHO-hERG cells
T1 sequence (Q12809 whole entry): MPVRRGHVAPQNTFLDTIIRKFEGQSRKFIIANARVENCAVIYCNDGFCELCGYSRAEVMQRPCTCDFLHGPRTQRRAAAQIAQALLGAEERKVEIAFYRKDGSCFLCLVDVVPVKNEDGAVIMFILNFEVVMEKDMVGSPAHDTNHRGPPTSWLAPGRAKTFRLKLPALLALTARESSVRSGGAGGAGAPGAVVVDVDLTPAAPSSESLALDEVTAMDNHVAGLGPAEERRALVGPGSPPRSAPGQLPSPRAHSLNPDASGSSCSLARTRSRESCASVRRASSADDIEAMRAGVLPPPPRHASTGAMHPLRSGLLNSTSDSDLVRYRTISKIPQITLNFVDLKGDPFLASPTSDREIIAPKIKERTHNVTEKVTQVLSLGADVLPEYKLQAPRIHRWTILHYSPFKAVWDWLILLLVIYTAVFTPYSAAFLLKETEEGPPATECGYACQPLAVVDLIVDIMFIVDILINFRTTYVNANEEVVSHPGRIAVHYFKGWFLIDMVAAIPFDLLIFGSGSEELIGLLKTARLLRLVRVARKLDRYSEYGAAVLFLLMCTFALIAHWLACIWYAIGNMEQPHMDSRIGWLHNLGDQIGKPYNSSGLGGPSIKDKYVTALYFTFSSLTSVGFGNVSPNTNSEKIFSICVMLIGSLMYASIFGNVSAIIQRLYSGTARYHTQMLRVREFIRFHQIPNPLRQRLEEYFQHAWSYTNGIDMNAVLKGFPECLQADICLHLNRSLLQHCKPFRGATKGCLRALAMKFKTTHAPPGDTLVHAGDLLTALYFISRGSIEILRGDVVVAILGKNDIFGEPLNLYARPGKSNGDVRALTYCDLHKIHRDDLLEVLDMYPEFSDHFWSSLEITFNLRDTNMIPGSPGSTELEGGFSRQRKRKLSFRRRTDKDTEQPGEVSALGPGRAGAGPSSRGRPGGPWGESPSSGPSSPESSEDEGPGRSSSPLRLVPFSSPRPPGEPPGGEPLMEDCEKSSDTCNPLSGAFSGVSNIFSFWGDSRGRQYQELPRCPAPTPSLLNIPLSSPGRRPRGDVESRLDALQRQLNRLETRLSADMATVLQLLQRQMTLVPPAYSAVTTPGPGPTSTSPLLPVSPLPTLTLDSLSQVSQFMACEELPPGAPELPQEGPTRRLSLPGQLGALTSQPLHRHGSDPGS
Description: 8.1.1 CHO-hERG cells were cultured in a 175 cm^2 culture flask. When the cells were grown to a density of 60 to 80%, the culture solution was removed, and the cells were washed once with 7 mL of PBS, and then 3 mL of Detachin was added for digestion of the cells.
8.1.2 After the digestion was complete, the cells were neutralized by adding 7 mL of the culture solution and then centrifuged. The supernatant was removed, and then 5 mL of the culture solution was added for resuspension to ensure a cell density of 2-5×10^6 cells/mL.
The single-cell high-impedance sealing and whole-cell pattern formation processes were both completed automatically by the Qpatch instrument. After the whole-cell recording pattern was obtained, the cells were clamped at −80 millivolts. A pre-voltage of −50 millivolts was applied for 50 milliseconds prior to the application of a depolarizing stimulus of +40 millivolts for 5 seconds, and then the cells were repolarized to −50 millivolts and maintained for 5 seconds, and then returned back to −80 millivolts. This voltage stimulation was applied every 15 seconds, and data were recorded for 2 minutes, and thereafter the extracellular fluid was administered and data were recorded for 5 minutes, and then the administration process was started. The compound was administered from the lowest test concentration, and 2.5 minutes were given for each test concentration. After all the concentrations of the compound were administered, […] Cisapride as a positive control compound was administered. At least three cells (n≥3) were tested for each concentration.
8.4.1 20 mM compound mother solution was diluted with the extracellular fluid. 5 μL of the 20 mM compound mother solution was diluted 500 times to 40 μM by adding 2495 μL of the extracellular fluid, and then 3-fold serial dilutions were performed sequentially in the extracellular fluid containing 0.2% DMSO to obtain a final concentration to be tested.
8.4.2 The highest test concentration was 40 μM, and there were six concentrations in total, i.e., 40, 13.33, 4.44, 1.48, 0.49, and […], respectively.
The experimental data were analyzed by XLFit software.

[1] = test system: human pancreatic cancer cell MiaPaca 2 xenograft; experiment: Tumor inhibition test on MiaPaca 2 xenograft model; type: in vivo, Balb/c nude mice; details: 6 mg/kg QD × 3 w, intragastric
Description: Balb/c nude mice were used as test animals. In vivo pharmacodynamic test was carried out on human pancreatic cancer cell MiaPaca 2 xenograft (CDX) model to evaluate the anti-tumor effect of the test compounds.
MiaPaca 2 cells were taken from the cell bank and thawed. The cells were added to the DMEM medium (containing 10% FBS, 1% Glu and 1% P/S), and incubated in the CO2 incubator (the temperature of the incubator was 37° C., and the CO2 concentration was 5%). After the cells covered 80-90% of the bottom of the culture flask, the cells were passaged. After passage, the cells continued to be incubated in the CO2 incubator. The process was repeated until the number of cells met the inoculation requirement of the in vivo pharmacodynamic test. The cells in logarithmic growth phase were collected, and counted by the automatic cell counter. According to the counting results, the cells were resuspended with PBS and Matrigel (volume ratio: 1:1) to obtain a cell suspension (density: 8×10^7/ml), which was placed in an ice box for later use.
Female Balb/c nude mice (6-8 weeks old, body weight: about 18-22 grams) were used as test animals. The mice were maintained in an environment free of special pathogens and in a single ventilated cage (five mice per cage). All cages, bedding and water were disinfected before use. All animals had free access to standard certified commercial laboratory animal diets. The nude mice were marked with a disposable universal ear tag for rats and mice before the test. The skin of the inoculation site was disinfected with 75% medical alcohol before the inoculation. Each mouse was inoculated with 0.1 ml of MiaPaca 2 tumor cells (containing 8*10^6 cells) subcutaneously on the right back. When the average tumor volume reached 100 to 200 mm^3, administration was carried out. The test compounds were administered intragastrically daily. The tumor volume (mm^3) was measured with the vernier caliper twice a week. The tumor volume calculation formula: V=0.5*D*d*d, wherein D and d represent the long diameter and short diameter of the tumor, respectively. The anti-tumor efficacy was determined by dividing the average tumor increase volume of the compound-treated animals by the average tumor increase volume of the untreated animals. Tumor growth inhibition rate calculation formula: […]
All animals were euthanized after the experiment.

NCI-H358 cells = experiment: Proliferation inhibition of NCI-H358 cells (CellTiter-Glo); type: cell-based; details: Homo sapiens, NCI-H358, 72 h; 3 days incubation
Description: Experimental method: 3000 cells (90 μL of cell suspension) were inoculated to each well of a 96-well cell culture plate (Corning, #3610). The culture plate was incubated in an incubator overnight (37° C., 5% CO2). On the next day, 10 μL of gradient dilutions of the test compound solution (the final DMSO content was 0.2%, V/V, the final concentration of the reaction system ranged from 10 μM to 4.5 nM) was added to each well of the culture plate. At the same time, full activity control (compound only with DMSO) and full inhibition control (no cells) were set up on the reaction plate. The culture plate was incubated in the incubator for 3 days (37° C., 5% CO2).
After completion of the incubation, 50 μL of CellTiter-Glo reagent was added to each well of the cell culture plate, which was left to stand at room temperature for 10 minutes. The chemiluminescence signal value was measured in the Synergy H1 full-function microplate reader (BioTek). […] The IC50 value of the test compounds was calculated by fitting the percentage inhibition rate and data of eight concentrations to a four-parameter nonlinear logic formula with GraphPad prism.
The IC50 value was calculated by fitting the data of different concentrations and corresponding percentage inhibition rates to a four-parameter nonlinear logic formula with GraphPad prism.

[2] = target: T2, SHP-2 full-length protein (Homo sapiens, UniProt Q06124); experiment: Inhibition of SHP-2 kinase activity (Homogeneous Full Length SHP-2 Assay Kit); type: biochemical; details: relative IC50, full-length SHP-2 with activating peptide
T2 construct: purchased BPS Bioscience 79330
T2 sequence (Q06124 1-593): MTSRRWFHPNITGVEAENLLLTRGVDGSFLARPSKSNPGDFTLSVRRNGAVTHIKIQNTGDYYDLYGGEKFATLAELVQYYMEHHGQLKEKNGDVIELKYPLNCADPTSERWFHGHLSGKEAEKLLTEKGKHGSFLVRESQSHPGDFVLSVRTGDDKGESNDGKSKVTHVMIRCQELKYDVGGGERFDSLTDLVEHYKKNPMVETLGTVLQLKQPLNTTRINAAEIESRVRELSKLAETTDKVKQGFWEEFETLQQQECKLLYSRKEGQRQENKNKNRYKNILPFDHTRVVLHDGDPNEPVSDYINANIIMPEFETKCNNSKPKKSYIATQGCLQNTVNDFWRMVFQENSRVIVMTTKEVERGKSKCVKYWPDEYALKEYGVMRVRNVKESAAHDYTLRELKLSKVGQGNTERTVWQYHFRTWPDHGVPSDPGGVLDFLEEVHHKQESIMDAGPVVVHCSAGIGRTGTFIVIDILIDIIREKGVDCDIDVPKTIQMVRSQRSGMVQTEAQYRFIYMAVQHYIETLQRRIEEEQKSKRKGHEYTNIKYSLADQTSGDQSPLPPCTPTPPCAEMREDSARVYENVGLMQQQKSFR
Description: The objective of this test is to determine the inhibitory effect of the compounds on SHP-2 full-length protein allosteric activity.
Experimental method: Homogeneous Full Length SHP-2 Assay Kit (BPS Bioscience, #79330) was used to determine the in vitro SHP-2 activity. First, 18 μL of Master Mix was added to a 96-well low adsorption microplate (NUNC, #267342), i.e., the reaction buffer with a final concentration of 1× comprised 0.5 μM SHP-2 activating Peptide and 5 mM DTT. After centrifugation, 5 μL of test compound/DMSO was added to each well (the final DMSO content was 1%, V/V, the test compound was dissolved in DMSO to 1 mM, a three-fold serial dilution was carried out to obtain ten concentrations, the final concentration of the reaction system ranged from 1 μM to 0.05 nM). SHP-2 was diluted in the 1× reaction buffer to a final concentration of 0.06 nM, and the resulting solution was added to the reaction microplate (2 μL per well). Full activity control (compound only with DMSO) and full inhibition control (no SHP-2) were set up on the reaction plate. After centrifugation, the reaction mixture was incubated at room temperature for 60 minutes.
After completion of the incubation, 25 μL of Substrate solution, which comprised Substrate with a final concentration of 10 μM and 5 mM DTT, was added to each well. After centrifugation, the reaction mixture was incubated at room temperature for 30 minutes. After completion of the reaction, readings were measured on the Synergy H1 full-function microplate reader (BioTek) (excitation wavelength: 340 nm, emission wavelength: […], gain value: 75).
The IC50 value of the test compounds was calculated by fitting the percentage inhibition rate and data of ten concentrations to a four-parameter nonlinear logic formula with GraphPad prism.

[3] = Pharmacokinetics assay in rats, oral administration; type: in vivo; details: rat; male SD rats, oral 5 mg/kg, plasma
Description: SD rats were used as test animals.
(§1) 5 g of hydroxyethyl cellulose (HEC, CMC-Na, viscosity: 800-1200 Cps) was dissolved in 1000 mL of purified water, and 10 g of Tween80 was added. The solution was mixed well to form a clear solution.
The solution was shaked well and subjected to ultrasound for 15 minutes to obtain a colorless and clear solution with a concentration of 0.5 mg/mL.
After an overnight fast, male SD rats (3 rats per group) were administrated orally with the test compounds at an administration dose of 5 mg/kg and an administration volume of 10 mL/kg.
0.2 mL of blood was taken from jugular vein before administration and at 0.5 hour, 1.0 hour, 2.0 hours, 4.0 hours, 6.0 hours, 8.0 hours and 24.0 hours after administration. The blood samples were stored in EDTA-2K tubes, and centrifuged for 6 minutes at 6000 rpm, at 4° C. to separate the blood plasma. The plasma samples were stored at −80° C. The rats were fed four hours after administration.

[4] = Pharmacokinetics assay in mice, oral administration; type: in vivo; details: mouse; male Balb/c mice, oral 5 mg/kg, plasma
Description: Balb/c mice were used as test animals.
as §1, with “solution. […] The solution was subjected to ultrasound for 10 minutes to obtain a colorless and clear solution with a concentration of 0.5 mg/mL.” for “solution.”
After an overnight fast, male Balb/c mice were administrated orally with the test compounds at an administration dose of 5 mg/kg and an administration volume of 10 mL/kg.
Blood was taken before administration and at 0.25 hour, 0.5 hour, 1 hour, 2 hours, 4 hours, 6 hours, 8 hours and 24 hours after administration. The blood samples were stored in EDTA-2K tubes, and centrifuged for 6 minutes at 6000 rpm, at 4° C. to separate the blood plasma. The plasma samples were stored at −80° C. The mice were fed four hours after administration.

Structure (SMILES)	IC50 (hERG potassium channel) [nM]	Tumor volume (Mean ± SD) Day 0 [1]	TGI Day 21 [1] [%]	Tumor volume (Mean ± SD) Day 21 [1] [mm^3]	ΔT/ΔC Day 21 [1] [%]	IC50 (NCI-H358 cells) [nM]	IC50 [2] [nM]	AUC(0-inf) [3] [ng·h/mL]	Cmax [3] [ng/mL]	MRT [3] [h]	Tmax [3] [h]	half-life [3] [h]	AUC(0-inf) [4] [ng·h/mL]	Cmax [4] [ng/mL]	MRT [4] [h]	Tmax [4] [h]	half-life [4] [h]
Cc1nc(Sc2ccnc(N)c2Cl)c(N)nc1N1CCC2(CC1)Cc1ccccc1[C@H]2N [Example 96, (S)-1′-(6-amino-5-((2-amino-3-chloropyridin-4-yl)thio)-3-methylpyrazin-2-yl)-1,3-dihydrospiro[indene-2,4′-piperidin]-1-amine]	5240	170 ± 28 (171 ± 25) mm^3	97.76	183 ± 70	2.24	13.4	9.28	–	–	–	–	–	–	–	–	–	–
Nc1nc(N2CCC3(CC=C(C4CC4)[C@H]3N)CC2)cnc1Sc1ccnc(N)c1Cl [Example 143, (S)-8-(6-amino-5-((2-amino-3-chloropyridin-4-yl)thio)pyrazin-2-yl)-2-cyclopropyl-8-azaspiro[4.5]dec-2-en-1-amine]	6170	166 ± 27 (168 ± 32) mm^3	95.64	196 ± 62	4.36	23.3	3.8	–	–	–	–	–	–	–	–	–	–
Nc1nc(N2CCC3(CC2)Cc2ncccc2[C@H]3N)c(F)nc1Sc1ccnc(N)c1Cl [Example 180, (S)-1′-(6-Amino-5-((2-amino-3-chloropyridin-4-yl)thio)-3-fluoropyrazin-2-yl)-5,7-dihydrospiro[cyclopenta[b]pyridine-6,4′-piperidin]-5-amine]	–	–	–	–	–	79.9	9.29	6250	666	5.67	1	4.12	5980	996	5.15	0.5	3.92
